Reference: patent US11840686B2, “Modulation of prekallikrein (PKK) expression” (Ionis Pharmaceuticals, Inc., priority 2013, dated 2023)
Strand notation (5' to 3'): a small letter for the sugar, then the base; units joined by * are phosphorothioate-linked, units joined directly phosphodiester-linked; [ ] holds rarer units or linkages, { } end groups; capitals alone tell only the bases. e = 2'-O-(2-methoxyethyl) (MOE); [5mC] = 5-methylcytosine; d = 2'-deoxy (DNA)

Test system: human PKK mRNA
Assay: Antisense inhibition of human PKK mRNA in HepaRG cells, 5,000 nM (Example 2)
Type: cell-based
Outline: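 HepaRG cells, 20,000 per well, were electroporated with 5,000 nM MOE gapmer (phosphorothioate, 5-methylcytosine) and incubated about 24 hours. PKK mRNA was quantified by qRT-PCR with primer probe set RTS3454, normalized to RIBOGREEN total RNA, and expressed as percent inhibition versus untreated controls.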

[1] = human PKK mRNA, HepaRG cells, 5-10-5 motif oligonucleotides targeting SEQ ID NO: 1 and 10
[2] = HepaRG cells, 5,000 nM antisense oligonucleotide, 5-10-5 gapmers, Table 16
[3] = HepaRG cells, 5,000 nM antisense oligonucleotide, 5-10-5 gapmers, Table 17

“546904 (eT*e[5mC]*e[5mC]*eT*eA*dT*dA*dT*d[5mC]*dA*d[5mC]*dT*dG*dT*dA*e[5mC]*e[5mC]*eT*eA*eT; antisense) [compound 546904]” was tested, and the “% inhibition” value [1] was 80%.

With “546905 (eT*eA*e[5mC]*e[5mC]*eT*dA*dT*dA*dA*d[5mC]*dA*dG*dT*dA*dT*e[5mC]*eA*e[5mC]*eT*eG; antisense) [compound 546905]” the “% inhibition” value [1] was 65%.

With “546907 (eA*eT*eA*eA*e[5mC]*dT*dA*dT*dA*dA*d[5mC]*dA*dG*dT*dA*eT*e[5mC]*eA*e[5mC]*e[5mC]; antisense) [compound 546907]” the “% inhibition” value [1] was 37%.

For “546908 (eT*e[5mC]*eA*e[5mC]*eT*dG*dT*dA*d[5mC]*d[5mC]*dT*dA*dT*dA*dA*e[5mC]*eT*eA*eT*eA; antisense) [compound 546908]”, the “% inhibition” value [1] was 77%.

For “546909 (eA*eA*e[5mC]*eA*eA*dT*dA*dT*d[5mC]*dA*d[5mC]*dT*dG*dT*dA*e[5mC]*e[5mC]*eT*eT*eT; antisense) [compound 546909]”, the “% inhibition” value [1] was 44%.

“546910 (eT*eA*eA*e[5mC]*eA*dA*dT*dA*dT*d[5mC]*dA*d[5mC]*dT*dG*dT*eA*e[5mC]*e[5mC]*eT*eT; antisense) [compound 546910]” was tested, and the “% inhibition” value [1] was 82%.

With “546911 (eG*eT*e[5mC]*e[5mC]*eT*dA*dT*dA*dA*d[5mC]*dT*dA*dT*dA*dA*e[5mC]*eA*eA*eT*eA; antisense) [compound 546911]” the “% inhibition” value [1] was 52%.

With “546912 (eA*e[5mC]*eA*eT*e[5mC]*dA*d[5mC]*dT*dG*dT*d[5mC]*d[5mC]*dT*dA*dT*eA*eA*e[5mC]*eT*eA; antisense) [compound 546912]” the “% inhibition” value [2] was 26%.

“546913 (eG*eT*eA*e[5mC]*e[5mC]*dT*dA*dT*dA*dT*d[5mC]*dA*d[5mC]*dT*dG*eT*eA*eA*e[5mC]*eT; antisense) [compound 546913]” was tested, and the “% inhibition” value [2] was 38%.

With “546914 (eA*eT*eA*eT*e[5mC]*dA*d[5mC]*dT*dG*dT*dA*d[5mC]*d[5mC]*dT*dA*eT*eA*eT*e[5mC]*eA; antisense) [compound 546914]” the “% inhibition” value [2] was 52%.

For “546915 (eT*e[5mC]*eA*e[5mC]*eT*dG*dT*d[5mC]*d[5mC]*dT*dA*dT*dA*dA*d[5mC]*eT*eA*eT*eA*eT; antisense) [compound 546915]”, the “% inhibition” value [2] was 39%.

For “546917 (eA*eT*e[5mC]*eA*e[5mC]*dT*dG*dT*d[5mC]*d[5mC]*dT*dA*dT*dA*dA*e[5mC]*eT*eA*eT*eT; antisense) [compound 546917]”, the “% inhibition” value [2] was 63%.

“546918 (eA*eA*e[5mC]*eA*eT*d[5mC]*dA*d[5mC]*dT*dG*dT*dA*d[5mC]*d[5mC]*dT*eA*eT*eA*eA*e[5mC]; antisense) [compound 546918]” was tested, and the “% inhibition” value [2] was 14%.

“546926 (eG*e[5mC]*e[5mC]*eA*eT*d[5mC]*d[5mC]*dA*dG*dG*dG*dT*dG*d[5mC]*dT*e[5mC]*eT*e[5mC]*e[5mC]*e[5mC]; antisense) [compound 546926]” was tested, and the “% inhibition” value [2] was 81%.

With “546931 (eG*e[5mC]*e[5mC]*e[5mC]*e[5mC]*d[5mC]*dG*dG*dA*dG*d[5mC]*dA*d[5mC]*d[5mC]*dT*eT*e[5mC]*eA*e[5mC]*eT; antisense) [compound 546931]” the “% inhibition” value [2] was 58%.

“546935 (e[5mC]*eG*eT*eG*eG*dT*dT*dA*dG*d[5mC]*d[5mC]*dT*dG*dA*d[5mC]*eA*eT*e[5mC]*eT*e[5mC]; antisense) [compound 546935]” was tested, and the “% inhibition” value [2] was 86%.

“546942 (eT*eA*e[5mC]*eA*e[5mC]*dT*dG*dA*dA*d[5mC]*d[5mC]*d[5mC]*d[5mC]*d[5mC]*dT*eT*eA*eG*eG*e[5mC]; antisense) [compound 546942]” was tested, and the “% inhibition” value [2] was 56%.

For “546943 (e[5mC]*eA*eG*eT*eT*dT*dG*dG*d[5mC]*d[5mC]*dT*dT*dT*d[5mC]*d[5mC]*eA*eT*e[5mC]*eT*e[5mC]; antisense) [compound 546943]”, the “% inhibition” value [2] was 54%.

For “546944 (eG*e[5mC]*e[5mC]*eA*e[5mC]*dT*dA*dA*d[5mC]*d[5mC]*d[5mC]*dA*d[5mC]*d[5mC]*dT*e[5mC]*eT*eT*eA*eA; antisense) [compound 546944]”, the “% inhibition” value [2] was 42%.

“546946 (eA*e[5mC]*eT*e[5mC]*e[5mC]*d[5mC]*dA*dT*d[5mC]*dT*dA*d[5mC]*dT*d[5mC]*d[5mC]*e[5mC]*e[5mC]*e[5mC]*eA*eT; antisense) [compound 546946]” was tested, and the “% inhibition” value [2] was 41%.

“546954 (e[5mC]*eT*eG*e[5mC]*eT*dG*dA*dT*dT*dG*dT*dG*dT*d[5mC]*dT*eG*eG*e[5mC]*eT*e[5mC]; antisense) [compound 546954]” was tested, and the “% inhibition” value [2] was 71%.

For “546955 (eA*e[5mC]*eA*eA*eG*dG*d[5mC]*dT*dT*d[5mC]*dG*dA*dG*dG*dA*e[5mC]*eA*eG*e[5mC]*e[5mC]; antisense) [compound 546955]”, the “% inhibition” value [2] was 49%.

For “546964 (eG*e[5mC]*eG*eA*eT*dT*d[5mC]*d[5mC]*dT*dT*dG*d[5mC]*d[5mC]*dT*d[5mC]*eT*eG*e[5mC]*eT*eG; antisense) [compound 546964]”, the “% inhibition” value [2] was 53%.

With “546969 (eA*eT*e[5mC]*e[5mC]*eA*dA*d[5mC]*d[5mC]*dT*d[5mC]*dT*d[5mC]*dT*d[5mC]*d[5mC]*e[5mC]*eT*eA*eT*e[5mC]; antisense) [compound 546969]” the “% inhibition” value [2] was 53%.

In the case of “546970 (eG*e[5mC]*e[5mC]*e[5mC]*eA*dA*dG*d[5mC]*d[5mC]*dT*dA*d[5mC]*dA*dT*dG*e[5mC]*eA*eT*eA*e[5mC]; antisense) [compound 546970]”, the “% inhibition” value [2] is reported as 61%.

“546975 (eG*eG*e[5mC]*e[5mC]*eT*dG*dG*dA*dT*dA*d[5mC]*dA*dG*d[5mC]*d[5mC]*eT*eT*eT*e[5mC]*eT; antisense) [compound 546975]” was tested, and the “% inhibition” value [2] was 70%.

In the case of “546977 (eG*eT*e[5mC]*e[5mC]*e[5mC]*dG*dA*dA*dG*dA*dG*dT*d[5mC]*dA*dA*eG*eT*e[5mC]*e[5mC]*eA; antisense) [compound 546977]”, the “% inhibition” value [2] is reported as 76%.

In the case of “546979 (eA*e[5mC]*eT*eG*eT*dT*dG*dT*d[5mC]*d[5mC]*dA*dT*dA*dG*d[5mC]*eA*eG*e[5mC]*eA*eT; antisense) [compound 546979]”, the “% inhibition” value [2] is reported as 71%.

In the case of “546983 (eG*eA*eT*eG*eA*d[5mC]*d[5mC]*dT*dG*d[5mC]*dA*dG*dA*dT*dG*e[5mC]*eA*e[5mC]*eA*eG; antisense) [compound 546983]”, the “% inhibition” value [2] is reported as 74%.

In the case of “546990 (eA*eG*eA*eA*e[5mC]*dA*dG*dG*dA*dG*dA*d[5mC]*dA*dA*dT*e[5mC]*e[5mC]*eA*e[5mC]*eT; antisense) [compound 546990]”, the “% inhibition” value [2] is reported as 49%.

In the case of “546994 (eG*eT*eT*e[5mC]*eA*dT*dG*dT*dG*dG*d[5mC]*dA*dA*d[5mC]*d[5mC]*eT*eG*eT*eG*eA; antisense) [compound 546994]”, the “% inhibition” value [2] is reported as 58%.

In the case of “546999 (eG*e[5mC]*eA*eG*e[5mC]*dT*d[5mC]*dA*d[5mC]*dA*d[5mC]*d[5mC]*d[5mC]*dA*dA*eA*eA*eA*eG*e[5mC]; antisense) [compound 546999]”, the “% inhibition” value [3] is reported as 29%.

For “547000 (eT*e[5mC]*eT*eG*eT*dT*dA*d[5mC]*d[5mC]*dT*dT*dG*dA*dG*dG*eA*eT*eT*eG*eT; antisense) [compound 547000]”, the “% inhibition” value [3] was 63%.

For “547008 (eT*eT*eG*eG*eT*dG*dG*dT*dG*dG*dG*dA*dT*dT*dG*eG*eT*eG*eG*eT; antisense) [compound 547008]”, the “% inhibition” value [3] was 81%.

In the case of “547010 (eG*eA*eA*eT*eT*dG*dG*dT*dG*dG*dT*dG*dG*dG*dA*eT*eT*eG*eG*eT; antisense) [compound 547010]”, the “% inhibition” value [3] is reported as 39%.

With “547011 (eG*eG*e[5mC]*eA*eG*dG*dA*dT*dT*dG*dG*dT*dG*dG*dT*eG*eG*eA*eA*eT; antisense) [compound 547011]” the “% inhibition” value [3] was 22%.

For “547013 (eT*eG*eA*eG*eA*dT*dT*dG*dG*dT*dG*dG*dT*dG*dG*eG*eT*eG*eG*e[5mC]; antisense) [compound 547013]”, the “% inhibition” value [3] was 0%.

For “547015 (eG*eG*eT*eG*eG*dT*dG*dG*dG*dA*dT*dT*dG*dG*dT*eG*e[5mC]*eT*eG*eA; antisense) [compound 547015]”, the “% inhibition” value [3] was 55%.

“547016 (eG*eT*eA*eG*eG*dT*dG*dG*dT*dG*dG*dG*dA*dT*dT*eG*eG*eT*eG*eG; antisense) [compound 547016]” was tested, and the “% inhibition” value [3] was 62%.

In the case of “547017 (eG*eG*eT*eA*eG*dG*dT*dG*dG*dT*dG*dG*dG*dA*dT*eT*eG*eG*eT*eG; antisense) [compound 547017]”, the “% inhibition” value [3] is reported as 61%.

In the case of “547018 (eG*eG*eT*eG*eG*d[5mC]*dG*dG*dG*dA*dT*dT*dG*dG*dT*eG*eG*eT*eG*eG; antisense) [compound 547018]”, the “% inhibition” value [3] is reported as 58%.

In the case of “547020 (eG*eG*eA*eT*e[5mC]*dG*dG*dT*dG*dG*dT*dG*dG*dG*dA*eT*eT*eG*eG*eT; antisense) [compound 547020]”, the “% inhibition” value [3] is reported as 47%.

For “547021 (eT*eT*eG*eG*eT*dG*dG*d[5mC]*dG*dG*dG*dA*dT*d[5mC]*dG*eG*eT*eG*eG*eT; antisense) [compound 547021]”, the “% inhibition” value [3] was 57%.

In the case of “547022 (eA*eT*eT*eG*eG*dT*dG*dG*d[5mC]*dG*dG*dG*dA*dT*d[5mC]*eG*eG*eT*eG*eG; antisense) [compound 547022]”, the “% inhibition” value [3] is reported as 69%.

With “547023 (eG*eA*eT*eT*eG*dG*dT*dG*dG*d[5mC]*dG*dG*dG*dA*dT*e[5mC]*eG*eG*eT*eG; antisense) [compound 547023]” the “% inhibition” value [3] was 91%.

For “547024 (eG*eG*eA*eT*eT*dG*dG*dT*dG*dG*d[5mC]*dG*dG*dG*dA*eT*e[5mC]*eG*eG*eT; antisense) [compound 547024]”, the “% inhibition” value [3] was 56%.

In the case of “547025 (eT*eG*eG*eT*eG*dG*dT*dG*dG*dG*dA*dT*dT*dG*dG*eT*eG*eG*eT*eT; antisense) [compound 547025]”, the “% inhibition” value [3] is reported as 72%.

“547029 (eT*e[5mC]*eT*eT*e[5mC]*dT*dA*dG*dG*dG*d[5mC]*d[5mC]*dA*d[5mC]*dA*e[5mC]*e[5mC]*eT*e[5mC]*eT; antisense) [compound 547029]” was tested, and the “% inhibition” value [3] was 50%.
